According to paper PMC4156305, “Structure Driven Design of Novel Human Ether-A-Go-Go-Related-Gene Channel (hERG1) Activators” (PLoS ONE, 2014):

Target: T1, hERG1 (Homo sapiens, UniProt Q12809)
T1 construct: expressed in transfected cells; host or cells: HEK 293
Assay: Whole cell patch-clamp of hERG1 currents in transfected HEK 293 cells
Format: cell-based
Set-up: Inactivation ΔV0.3: unit not given here
Conditions: for Deactivation Δλ/λcon: deactivation time constant relative to baseline; for Activation V1/2 (mV): shift in voltage-dependence of activation; for Inactivation ΔV0.3: shift in voltage-dependence of inactivation; for Amplitude I/Icon: tail current relative to baseline
Procedure: Transfected HEK cells on glass cover slips were placed in a chamber mounted on a modified stage of an inverted microscope. The chamber was superfused at a rate of 2 mL/min with a normal external solution. The extracellular solution contained (in mM) NaCl 140, KCl 5.4, CaCl2 1, MgCl2 1, HEPES 5, glucose 5.5, pH 7.4, with NaOH. Micropipettes were pulled from borosilicate glass capillary tubes on a programmable horizontal puller (Sutter Instruments, Novato, CA). Standard patch-clamp methods were used to measure the whole cell currents of hERG1 mutants expressed in HEK 293 cells using the AXOPATCH 200B amplifier (Axon Instruments). Unless otherwise indicated, tail currents were recorded when the voltage was returned to −50 mV from +50 mV. Further details on electrophysiological methods are collected in Methods S1.
Electrophysiology Protocol:
The pipette solution contained the following (at mM concentration): KCl 10, K-aspartate 110, MgCl2 5, Na2ATP 5, EGTA 10, HEPES 5, and CaCl2 1. The solution was adjusted to pH 7.2 with KOH. The extracellular solution contained the following (at mM concentration): NaCl 140, KCl 5.4, CaCl2 1, MgCl2 1, HEPES 5, and glucose 5.5. The solution was adjusted to pH 7.4 with NaOH. For IKr measurements, the whole cell configuration of the patch clamp method was used. The series resistance was less than 7
MΩ. The data were sampled at 1 kHz. The holding potential was -80 mV. The activation of hERG tail currents was induced by depolarization to a range of potentials from +50 to -100 mV in 10 mV steps for 1 second. This was followed by repolarization to -100 mV for 1 second to record the tail currents.
-100 mV, a -120 mV 1 second pre-pulse was applied to completely close the hERG channels before subsequent depolarization. All of the tail currents reported in this manuscript represent dofetilide-sensitive currents. The inactivation of hERG was measured by a previously reported triple-pulse protocol5, 6. The holding potential was -80 mV. The hERG channel was first depolarized to +50 mV for 1 second. Recovery from inactivation was achieved using a short pulse (a 10 ms hyperpolarization) to -120 mV, followed by the application of test pulses from -100 to 0 mV for 1 second in 10 mV steps.
A voltage of -100 mV was selected because it was on the flat part of the inactivation-voltage relationship. The methods employed are identical to ones previously reported. […]

[1] = Conc. 50 µM, listed as MC-I-159b
[2] = Conc. 10 µM, listed as MC-I-153b
[3] = Conc. 50 µM, listed as MC-I-153b

T1 sequence (Q12809 whole entry): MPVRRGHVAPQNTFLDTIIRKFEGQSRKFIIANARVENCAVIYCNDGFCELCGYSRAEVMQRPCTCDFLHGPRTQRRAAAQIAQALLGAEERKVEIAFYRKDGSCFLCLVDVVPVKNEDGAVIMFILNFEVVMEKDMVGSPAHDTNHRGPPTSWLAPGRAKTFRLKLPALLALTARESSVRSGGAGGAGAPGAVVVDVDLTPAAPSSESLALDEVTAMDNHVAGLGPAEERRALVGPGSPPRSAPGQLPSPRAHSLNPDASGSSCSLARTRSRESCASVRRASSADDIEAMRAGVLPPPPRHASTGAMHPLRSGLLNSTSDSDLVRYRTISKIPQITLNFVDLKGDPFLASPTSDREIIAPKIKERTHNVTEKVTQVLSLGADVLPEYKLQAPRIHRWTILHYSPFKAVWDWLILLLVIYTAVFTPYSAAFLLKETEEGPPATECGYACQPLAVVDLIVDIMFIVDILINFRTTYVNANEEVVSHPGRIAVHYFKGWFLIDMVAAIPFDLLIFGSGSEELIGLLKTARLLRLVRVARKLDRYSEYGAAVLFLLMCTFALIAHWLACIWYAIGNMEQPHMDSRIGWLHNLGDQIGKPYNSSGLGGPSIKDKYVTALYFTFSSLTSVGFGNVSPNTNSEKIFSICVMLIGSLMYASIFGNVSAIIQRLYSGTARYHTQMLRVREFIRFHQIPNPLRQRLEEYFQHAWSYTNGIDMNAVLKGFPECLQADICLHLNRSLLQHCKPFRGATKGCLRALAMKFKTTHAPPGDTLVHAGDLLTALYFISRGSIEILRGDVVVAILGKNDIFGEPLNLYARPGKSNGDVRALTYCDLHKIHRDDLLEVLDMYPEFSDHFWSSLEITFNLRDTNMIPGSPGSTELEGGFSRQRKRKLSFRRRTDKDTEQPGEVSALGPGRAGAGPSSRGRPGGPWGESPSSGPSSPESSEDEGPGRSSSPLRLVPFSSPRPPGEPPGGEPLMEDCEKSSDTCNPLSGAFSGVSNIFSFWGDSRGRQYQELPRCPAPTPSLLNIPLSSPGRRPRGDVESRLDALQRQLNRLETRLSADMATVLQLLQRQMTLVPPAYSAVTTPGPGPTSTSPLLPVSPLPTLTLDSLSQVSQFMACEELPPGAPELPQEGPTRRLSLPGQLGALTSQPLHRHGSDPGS

Row | Compound | Deactivation Δλ/λcon (Conc. 20 µM) | Activation V1/2 (mV) (Conc. 20 µM) | Inactivation ΔV0.3 (Conc. 20 µM) | Amplitude I/Icon (Conc. 20 µM) | Deactivation Δλ/λcon (Conc. 50 µM) | Activation V1/2 (mV) (Conc. 50 µM) | Inactivation ΔV0.3 (Conc. 50 µM) | Amplitude I/Icon (Conc. 50 µM) | also measured
1 | C[C@H](NCc1ccccc1)C(=O)NC(=O)Nc1cc(C(F)(F)F)ccc1O [Compound 2] | 0.6±0.4 | −14.5±5.5 mV | −21±0.0 | 0.4±0.02 |  |  |  |  | 
2 | C[C@H](NCc1ccc(F)cc1)C(=O)NC(=O)Nc1cc(C(F)(F)F)ccc1O [Compound 3] | 1.7±0.3 | −17.3±0.3 mV | −7.5±4.5 | 0.6±0.14 |  |  |  |  | Deactivation Δλ/λcon (Conc. 2 µM): 1.7±0.3; Activation V1/2 (mV) (Conc. 2 µM): −17.3±0.3 mV; Inactivation ΔV0.3 (Conc. 2 µM): −7.5±4.5
3 | C[C@H](NC(=O)c1ccccc1)C(=O)NC(=O)Nc1cc(C(F)(F)F)ccc1O [Compound 6] | 0.8±0.1 | −3.7±0.7 mV | −2.5±1.5 | 0.7±0.02 |  |  |  |  | 
4 | C[C@H](NC(=O)c1ccc([N+](=O)[O-])cc1)C(=O)NC(=O)Nc1cc(C(F)(F)F)ccc1O [Compound 7] | 0.6±0.3 | −7±1.1 mV | −3.5±4.5 | 0.6±0.1 |  |  |  |  | 
5 | COCOc1ccc(C(F)(F)F)cc1NC(=O)NC(=O)[C@H](C)NCc1ccc(F)cc1 [Compound 8] | −0.1±0.04 | −12.5±2.5 mV | −4±8 | 0.1±0.0 |  |  |  |  | 
6 | COCOc1ccc(C(F)(F)F)cc1NC(=O)NC(=O)[C@H](C)NCc1ccc(Br)cc1 [Compound 9] | −0.1±0.1 | −9.1±2.1 mV | −3.5±1.5 | 0.5±0.1 |  |  |  |  | 
7 | COCOc1ccc(C(F)(F)F)cc1NC(=O)NC(=O)[C@H](C)NCc1ccc(C(F)(F)F)cc1 [Compound 10] | 0.5±0.03 | −13.7±3.2 mV | −12.3±3.4 | 0.4±0.02 |  |  |  |  | 
8 | COCOc1ccc(C(F)(F)F)cc1NC(=O)NC(=O)[C@H](C)NC(=O)c1ccccc1 [Compound 11] | −0.1±0.2 | −12.7±2.7 mV | −1.5±1.5 | 0.6±0.04 |  |  |  |  | 
9 | COCOc1ccc(C(F)(F)F)cc1NC(=O)NC(=O)[C@H](C)NC(=O)c1ccc([N+](=O)[O-])cc1 [Compound 12] | −0.1±0.1 | −6.3±2.7 mV | −7.3±1.9 | 0.6±0.19 |  |  |  |  | 
10 | C[C@H](NS(=O)(=O)c1ccc(N)cc1)C(=O)NC(=O)Nc1cc(C(F)(F)F)ccc1O [Compound 13] | 0.3±0.1 | −5±3 mV | +8±0.4 | 1.0 | 0.5±0.1 | −2.5±3.0 mV | +10±0.6 | 1±0.03 | pharmacologic activity (1 µM): no pharmacologic activity; Activation V1/2 (mV) (Conc. 2 µM): −2±3 mV; Amplitude I/Icon (Conc. 2 µM): 1.0; Inactivation ΔV0.3 (Conc. 20 µM, listed as MC-I-159b): significantly shifted voltage-dependence of inactivation to depolarized potentials; Inactivation ΔV0.3 [1]: shifted the voltage-dependence of inactivation to depolarized potentials; Amplitude I/Icon [1]: did not produce pharmacological block
11 | C[C@H](NS(=O)(=O)c1ccc([N+](=O)[O-])cc1)C(=O)NC(=O)Nc1cc(C(F)(F)F)ccc1O [Compound 14] |  |  |  |  | 0.6±0.3 | −7.7±3.0 mV | 2.5±3.5 | 0.39±0.04 | Deactivation Δλ/λcon (Conc. 2 µM): 0.4±; Activation V1/2 (mV) (Conc. 2 µM): −3±0.02 mV; Amplitude I/Icon (Conc. 2 µM): 0.93±0.01; Amplitude I/Icon (Conc. 50 µM, listed as MC-I-169b): significantly more pharmacologic block
12 | COCOc1ccc(C(F)(F)F)cc1NC(=O)NC(=O)[C@H](C)NS(=O)(=O)c1ccc([N+](=O)[O-])cc1 [Compound 15] |  |  |  |  |  |  |  |  | Deactivation Δλ/λcon (Conc. 10 µM): −0.1±0.1; Activation V1/2 (mV) (Conc. 10 µM): −3±3 mV; Inactivation ΔV0.3 (Conc. 10 µM): −11±2; Amplitude I/Icon (Conc. 10 µM): 0.7±0.12; Deactivation Δλ/λcon (Conc. 30 µM): −0.01±0.07; Activation V1/2 (mV) (Conc. 30 µM): 0±0 mV; Inactivation ΔV0.3 (Conc. 30 µM): −10±0; Amplitude I/Icon (Conc. 30 µM): 0.5±0.04
13 | COCOc1ccc(C(F)(F)F)cc1NC(=O)NC(=O)[C@H](C)N [Compound 16] |  |  |  |  | 0.003±0.14 | −19±3 mV | −27±2 | 0.3±0.02 | Deactivation Δλ/λcon (Conc. 10 µM): −0.07±0.1; Activation V1/2 (mV) (Conc. 10 µM): −7±2 mV; Activation V1/2 (mV) [2]: shifts V1/2 of activation to hyperpolarized potentials; Amplitude I/Icon (Conc. 10 µM): 0.6±0.06; Amplitude I/Icon [2]: 0.6; Activation V1/2 (mV) [3]: left shifted the V1/2 of activation; Amplitude I/Icon [3]: 0.3
14 | COCOc1ccc(C(F)(F)F)cc1NC(=O)NC(=O)[C@H](C)N(Cc1ccccc1)Cc1ccccc1 [Compound 17] |  |  |  |  | 0.25±0.18 | −2±0 mV | +4±0 | 0.95±0.03 | Deactivation Δλ/λcon (Conc. 10 µM): 0.07±0.08; Activation V1/2 (mV) (Conc. 10 µM): −5±0.6 mV; Inactivation ΔV0.3 (Conc. 10 µM): −1±0.6
15 | CN(C(=O)c1cccc(C(F)(F)F)c1)c1ccccc1 [Compound 18] |  |  |  |  | −0.2±0.05 | 3.3±0.3 mV | −11.7±7.3 | 0.8±0.07 | 
16 | CN(C(=O)c1cc(C(F)(F)F)ccc1Cl)c1ccccc1 [Compound 19] |  |  |  |  | −0.2±0.08 | 1±3 mV | −2±1 | 0.7±0.06 | Activation V1/2 (mV) (Conc. 5 µM): 0 mV; Amplitude I/Icon (Conc. 5 µM): 0.9±0.1
